Reference: US20090280069A1, “PROGUANIL TO TREAT SKIN/MUCOSAL DISEASES” (Tolmar, Inc., priority 2008, published 2009)

Key:
Type in all cases: cell-based
[1] = system: Streptococcus agalactiae ATCC 49446; assay: time kill assay, S. agalactiae (Group B)
Description: Streptococcus agalactiae (Group B) infections can lead to skin diseases such as erysipelas and cellulitis. A time kill assay was used to test the effects of varying concentrations of proguanil on a culture of Streptococcus agalactiae ATCC 49446. An inoculum of S. agalactiae was prepared and inoculated in vials containing Muller Hinton II broth and proguanil concentrations of 160, 80, 16, 8, and 1.6 μg/ml. A growth control using phosphate buffered saline A (PBSA) plus Mueller Hinton II broth was used in place of the drug because it has no antimicrobial effect. DGME was the solvent used to dissolve the proguanil, accordingly, 10% DGME was used as the solvent control. These inoculated broth solutions were then allowed to incubate for a period of 72 hours. Samples were taken at 0, 4, 24, 48 and 72 hours and spiral plated so the CFU/ml could be calculated. The effects of proguanil on the S. agalactiae were observed.

[2] = system: Propionibacterium acnes ATCC 6919; assay: time kill assay, P. acnes
Description: A microbiological study used a time kill assay with Propionibacterium acnes ATCC 6919 as an indicator of the antibacterial activity of proguanil. […] A broth only control as well as a solvent 10% DGME control were added to the vials so that the total test volume was 15 ml. One hundred μl of a freshly grown suspension of P. acnes 6919 was then added at time zero so that the initial bacterial suspension was between 10^7 and 10^8 CFU/ml. All test and control suspensions were then incubated under anaerobic conditions at 35° C. Aliquots of the test and control suspensions were removed at 24, 48, 72, and 96 hours and plated onto tryptic soy agar in triplicate using a spiral plater. These plates were incubated anaerobically at 35° C. for 3-5 days. Surviving P. acnes colonies were then counted and the CFU/ml of test and control suspensions calculated and graphed.

[3] = system: Streptococcus dysgalactiae subsp. equisimilis ATCC 6644; assay: time kill assay, S. dysgalactiae (Group G)
Description: Streptococcus dysgalactiae (Group G) infections can lead to skin diseases such as erysipelas and cellulitis. A time kill assay was used to test the effects of varying concentrations of proguanil on a culture of Streptococcus dysgalactiae subsp. equisimilis ATCC 6644. An inoculum of S. dysgalactiae was prepared and inoculated in vials containing Muller Hinton II broth and proguanil concentrations of 160, 80, 16, 8, and 1.6 μg/ml. A growth control using phosphate buffered saline A (PBSA) plus Mueller Hinton II broth was used in place of the drug because it has no antimicrobial effect. DGME was the solvent used to dissolve the proguanil, accordingly, 10% DGME was used as the solvent control. These inoculated broth solutions were then allowed to incubate for a period of 72 hours. Samples were taken at 0, 4, 24, 48 and 72 hours and spiral plated so the CFU/ml could be calculated. In the experiments, the effects of proguanil on the S. dysgalactiae were observed.

[4] = system: Gardnerella vaginalis ATCC 14018; assay: time kill assay, G. vaginalis
Description: A time kill assay was used to test the effects of varying concentrations of proguanil on a culture of Gardnerella vaginalis ATCC 14018. An inoculum of G. vaginalis was prepared and inoculated in vials containing Brain Heart Infusion/Hemoglobin broth containing proguanil concentrations of 160, 80, 16, 8, 1.6 μg/ml. A growth control using phosphate buffered saline A (PBSA) plus a Brain Heart Infusion/Hemoglobin broth was used in place of the drug because it has no antimicrobial effect. DGME was the solvent used to dissolve the proguanil, accordingly, 10% DGME in broth was used as the solvent control. These inoculated broth solutions were then allowed to incubate for a period of 72 hours. Samples were taken at 0, 4, 24, 48 and 72 hours and spiral plated so the CFU/ml could be calculated.

[5] = system: Staphylococcus aureus ATCC 6538-P; assay: time kill assay, S. aureus
Description: Staphylococcus aureus infections can lead to many skin diseases. Impetigo, furuncles, folliculitis, and carbuncles are all diseases caused by an infection of S. aureus. A microbiological study used a time kill assay with Staphylococcus aureus ATCC 6538-P as an indicator of the antibacterial activity of proguanil. […] A broth only control as well as a solvent 10% DGME control were added to the vials so that the total test volume was 15 ml. One hundred μl of a freshly grown suspension of the Staphylococcus aureus was then added at time zero so that the initial bacterial suspension was between 10^3 and 10^4 CFU/ml. All test and control suspensions were then incubated under aerobic conditions at 35° C. […] These plates were incubated aerobically at 35° C. for 1-3 days. Surviving colonies were then counted and the CFU/ml of test and control suspensions calculated and graphed.

[6] = system: Candida albicans ATCC 10231; assay: time kill assay, C. albicans
Description: A time kill assay was used to test the effects of varying concentrations of proguanil on a culture of Candida albicans ATCC 10231. An inoculum of C. albicans was prepared and inoculated in vials containing Muller Hinton II broth and proguanil concentrations of 1280, 640, 480, 320, 160 μg/ml. A growth control using phosphate buffered saline A (PBSA) plus Mueller Hinton II broth was used in place of the drug because it has no antimicrobial effect. DGME was the solvent used to dissolve the proguanil. Accordingly, 10% DGME was used as the solvent control. These inoculated broth solutions were then allowed to incubate for a period of 72 hours. Samples were taken at 0, 4, 24, 48 and 72 hours and spiral plated so the CFU/ml could be calculated.

[7] = all other concentrations (16, 8, 1.6 μg/ml)

## CC(C)NC(=N)NC(=N)Nc1ccc(Cl)cc1 [Proguanil, N-(4-Chlorophenyl)-N′-(1-methylethyl)imidodicarbonimidic diamide]
[1]; 80 μg/ml
  effect on CFU/ml: slight effect
[1]; 160 μg/ml
  effect on the bacteria: dramatic inhibition
[1]; 160 μg/ml, T=48 and 72 hours
  CFU/ml: 0 CFU/ml
[1]; Streptococcus agalactiae (Group B) ATCC 49446
  Relative Sensitivity (Compared to Other Strains Tested): Moderately
[1]; Streptococcus agalactiae (Group B) ATCC 49446, level at which partial or total inhibition of growth is observed
  Approximate Inhibitory Level: 160 µg/mL
[1]; [7]
  effect on CFU/ml: very similar and near the CFU/ml of the Mueller Hinton II broth control
[2]; 160 μg/ml, by 24 hours
  bacteria eliminated: 97-100%
[2]; Propionibacterium acnes ATCC 6919
  Relative Sensitivity (Compared to Other Strains Tested): Sensitive
[2]; Propionibacterium acnes ATCC 6919, level at which partial or total inhibition of growth is observed
  Approximate Inhibitory Level: 80 to 160 µg/mL
[2]; between 0.16 and 16 μg/ml
  killing of P. acnes: not very effective
[3]; 80 μg/ml, time zero to 72 hours
  effect on CFU/ml: only a slight increase in CFU/ml
[3]; 160 μg/ml
  effect on the bacteria: strong inhibition and killing effect
[3]; 160 μg/ml, T=24, 48 and 72 hours
  CFU/ml: 0 CFU/ml
[3]; Streptococcus dysgalactiae (Group G) ATCC 6644
  Relative Sensitivity (Compared to Other Strains Tested): Sensitive
[3]; Streptococcus dysgalactiae (Group G) ATCC 6644, level at which partial or total inhibition of growth is observed
  Approximate Inhibitory Level: 80 to 160 µg/mL
[3]; [7]
  effect on CFU/ml: very similar and near the CFU/ml of the Mueller Hinton II broth control
[4]; 160 μg/ml and 80 μg/ml, 4 hours through 72 hours
  effect on the bacteria: killing effect
[4]; 16, 8, and 1.6 μg/ml
  inhibition of growth: no or little inhibition of growth
[4]; 160 and 80 μg/ml, T=24, 48 and 72 hours
  CFU/ml: 0 CFU/ml
[4]; Gardnerella vaginalis ATCC 14018
  Relative Sensitivity (Compared to Other Strains Tested): Very Sensitive
[4]; Gardnerella vaginalis ATCC 14018, level at which partial or total inhibition of growth is observed
  Approximate Inhibitory Level: 80 µg/mL
[5]; 160 μg/ml, all time points, similar to the DGME solvent control
  inhibition of the bacteria: slight inhibition
[5]; 320 μg/ml, by the 24 hour time point and later through 72 hours
  kill of S. aureus: complete kill
[5]; 1280, 640, and 480 μg/ml, by the 4 hour time point and later through 72 hours
  kill of the bacteria: complete kill
[5]; Staphylococcus aureus ATCC-6538P
  Relative Sensitivity (Compared to Other Strains Tested): Moderately
[5]; Staphylococcus aureus ATCC-6538P, level at which partial or total inhibition of growth is observed
  Approximate Inhibitory Level: 320 µg/mL
[6]; 160 μg/ml, static from 24 to 72 hours
  CFU/ml: 80 CFU/ml
[6]; 320 μg/ml, 24 hour time point and later
  effect on C. albicans: completely killed
[6]; 1280 μg/ml, all time points 0-72 hours
  CFU counts: 0 CFU
[6]; 640 and 480 μg/ml, 4-72 hour time points
  effect on the yeast: killing all of the yeast
[6]; Candida albicans
  Relative Sensitivity (Compared to Other Strains Tested): Moderately
[6]; Candida albicans, level at which partial or total inhibition of growth is observed
  Approximate Inhibitory Level: 320 µg/mL
